Tests used:
[1] = system: IGROV-1; assay: Cytotoxicity against human IGROV1 cells by SRB assay; assay type: functional
[2] = Cytotoxicity against human renal cancer cells by SRB assay; assay type: functional; conditions: Cancer cell lines
[3] = Cytotoxicity against human 786-O cells by SRB assay; assay type: functional; conditions: 786-0
[4] = system: HOP-92; assay: Cytotoxicity against human HOP92 cells by SRB assay; assay type: functional
[5] = system: SK-MEL-5; assay: Cytotoxicity against human SK-MEL-5 cells by SRB assay; assay type: functional
[6] = system: SNB-75; assay: Cytotoxicity against human SNB75 cells by SRB assay; assay type: functional
[7] = Cytotoxicity against human prostate cancer cells by SRB assay; assay type: functional; conditions: Cancer cell lines
[8] = system: ACHN; assay: Cytotoxicity against human ACHN cells by SRB assay; assay type: functional
[9] = system: Malme-3M; assay: Cytotoxicity against human MALME-3M cells by SRB assay; assay type: functional
[10] = system: NCI-H322M; assay: Cytotoxicity against human NCI-H322M cells by SRB assay; assay type: functional
[11] = system: NCI-H226; assay: Cytotoxicity against human NCI-H226 cells by SRB assay; assay type: functional
[12] = system: BT-549; assay: Cytotoxicity against human BT549 cells by SRB assay; assay type: functional
[13] = system: MDA-N; assay: Cytotoxicity against human MDA-N cells by SRB assay; assay type: functional
[14] = system: MDA-MB-231; assay: Cytotoxicity against human MDA-MB-231 cells by SRB assay; assay type: functional
[15] = system: HOP-62; assay: Cytotoxicity against human HOP62 cells by SRB assay; assay type: functional
[16] = system: SF-268; assay: Cytotoxicity against human SF268 cells by SRB assay; assay type: functional
[17] = system: K562; assay: Cytotoxicity against human K562 cells by SRB assay; assay type: functional
[18] = system: OVCAR-4; assay: Cytotoxicity against human OVCAR4 cells by SRB assay; assay type: functional
[19] = system: Leukemia cell; assay: Cytotoxicity against human Leukemia cells by SRB assay; assay type: functional
[20] = system: SNB-19; assay: Cytotoxicity against human SNB19 cells by SRB assay; assay type: functional
[21] = system: HT-29; assay: Cytotoxicity against human HT29 cells by SRB assay; assay type: functional
[22] = system: MOLT-4; assay: Cytotoxicity against human MOLT4 cells by SRB assay; assay type: functional
[23] = system: OVCAR-8; assay: Cytotoxicity against human OVCAR8 cells by SRB assay; assay type: functional
[24] = system: CAKI-1; assay: Cytotoxicity against human Caki1 cells by SRB assay; assay type: functional
[25] = system: OVCAR-5; assay: Cytotoxicity against human OVCAR5 cells by SRB assay; assay type: functional
[26] = system: U-251; assay: Cytotoxicity against human U251 cells by SRB assay; assay type: functional
[27] = system: T47D; assay: Cytotoxicity against human T47D cells by SRB assay; assay type: functional
[28] = system: UACC-62; assay: Cytotoxicity against human UACC62 cells by SRB assay; assay type: functional
[29] = Cytotoxicity against human melanoma cells by SRB assay; assay type: functional; conditions: Melanoma cell
[30] = system: LOX IMVI; assay: Cytotoxicity against human LOXIMVI cells by SRB assay; assay type: functional
[31] = system: MCF7; assay: Cytotoxicity against human MCF7 cells by SRB assay; assay type: functional
[32] = system: NCI-H522; assay: Cytotoxicity against human NCI-H522 cells by SRB assay; assay type: functional
[33] = system: RXF 393; assay: Cytotoxicity against human RXF393 cells by SRB assay; assay type: functional
[34] = Cytotoxicity against human Hs 578T cells by SRB assay; assay type: functional
[35] = system: HCC 2998; assay: Cytotoxicity against human HCC2998 cells by SRB assay; assay type: functional
[36] = system: UO-31; assay: Cytotoxicity against human UO31 cells by SRB assay; assay type: functional
[37] = system: SR; assay: Cytotoxicity against human SR cells by SRB assay; assay type: functional
[38] = system: COLO 205; assay: Cytotoxicity against human COLO205 cells by SRB assay; assay type: functional
[39] = system: SF-295; assay: Cytotoxicity against human SF295 cells by SRB assay; assay type: functional
[40] = system: UACC-257; assay: Cytotoxicity against human UACC257 cells by SRB assay; assay type: functional
[41] = system: HCT-116; assay: Cytotoxicity against human HCT116 cells by SRB assay; assay type: functional
[42] = system: CCRF-CEM; assay: Cytotoxicity against human CCRF-CEM cells by SRB assay; assay type: functional
[43] = system: A498; assay: Cytotoxicity against human A498 cells by SRB assay; assay type: functional
[44] = Cytotoxicity against human HL60(TB) cells by SRB assay; assay type: functional, HL-60(TB); conditions: HL-60
[45] = system: DU-145; assay: Cytotoxicity against human DU145 cells by SRB assay; assay type: functional
[46] = system: RPMI-8226; assay: Cytotoxicity against human RPMI8226 cells by SRB assay; assay type: functional
[47] = system: KM12; assay: Cytotoxicity against human KM12 cells by SRB assay; assay type: functional
[48] = system: SW-620; assay: Cytotoxicity against human SW620 cells by SRB assay; assay type: functional
[49] = Cytotoxicity against human ovarian cancer cells by SRB assay; assay type: functional; conditions: Cancer cell lines
[50] = system: SK-OV-3; assay: Cytotoxicity against human SKOV3 cells by SRB assay; assay type: functional
[51] = system: SK-MEL-2; assay: Cytotoxicity against human SK-MEL-2 cells by SRB assay; assay type: functional
[52] = Cytotoxicity against human CNS cancer cells by SRB assay; assay type: functional; conditions: Cancer cell lines
[53] = system: NCI-H460; assay: Cytotoxicity against human NCI-H460 cells by SRB assay; assay type: functional
[54] = Cytotoxicity against human Colon cancer cells by SRB assay; assay type: functional; conditions: Cancer cell lines
[55] = Cytotoxicity against human breast cancer cells by SRB assay; assay type: functional; conditions: Cancer cell lines
[56] = system: OVCAR-3; assay: Cytotoxicity against human OVCAR-3 cells by SRB assay; assay type: functional
[57] = system: M14; assay: Cytotoxicity against human M14 cells by SRB assay; assay type: functional
[58] = system: A549; assay: Cytotoxicity against human A549 cells by SRB assay; assay type: functional
[59] = system: SK-MEL-28; assay: Cytotoxicity against human SK-MEL-28 cells by SRB assay; assay type: functional
[60] = system: SN12C; assay: Cytotoxicity against human SN12C cells by SRB assay; assay type: functional
[61] = system: NCI-H23; assay: Cytotoxicity against human NCI-H23 cells by SRB assay; assay type: functional
[62] = system: EKVX; assay: Cytotoxicity against human EKVX cells by SRB assay; assay type: functional
[63] = system: PC-3; assay: Cytotoxicity against human PC3 cells by SRB assay; assay type: functional
[64] = Cytotoxicity against human MCF7/ADR cells by SRB assay; assay type: functional; conditions: NCI/ADR-RES
[65] = system: HCT-15; assay: Cytotoxicity against human HCT15 cells by SRB assay; assay type: functional
[66] = system: MDA-MB-435; assay: Cytotoxicity against human MDA-MB-435 cells by SRB assay; assay type: functional
[67] = system: NSCLC; assay: Cytotoxicity against human NSCLC cells by SRB assay; assay type: functional

C=C1[C@@H](O)C[C@@]23CC[C@@H]4[C@@]5(C)CC[C@@H](OC(C)=O)C(C)(C)[C@@H]5C[C@@H](O[C@@H]5O[C@H](COC(C)=O)[C@@H](O)[C@H](O)[C@H]5O)[C@@]4(C)C2=CC[C@H]3[C@H]1C
GI50 [1]: 4.79 µM | TGI [2]: 22.1 µM | GI50 [3]: 5.25 µM | GI50 [4]: 10.7 µM | GI50 [5]: 6.03 µM | GI50 [6]: 2.19 µM | TGI [7]: 18.3 µM | GI50 [8]: 7.08 µM | GI50 [9]: 11.5 µM | GI50 [10]: 12.9 µM | GI50 [11]: 6.03 µM | GI50 [12]: 11.5 µM | GI50 [13]: 5.13 µM | GI50 [14]: 7.76 µM | GI50 [15]: 12.9 µM | GI50 [16]: 6.61 µM | GI50 [17]: 3.09 µM | GI50 [18]: 3.98 µM | TGI [19]: 8.7 µM | GI50 [20]: 5.5 µM | GI50 [21]: 2.34 µM | TGI [21]: 5.9 µM | GI50 [22]: 1.95 µM | GI50 [23]: 6.61 µM | GI50 [24]: 13.2 µM | GI50 [25]: 2.09 µM | GI50 [26]: 2.82 µM | GI50 [27]: 7.24 µM | GI50 [28]: 7.08 µM | TGI [29]: 19.1 µM | GI50 [30]: 3.98 µM | GI50 [31]: 1.51 µM | GI50 [32]: 7.41 µM | GI50 [33]: 3.98 µM | GI50 [34]: 4.9 µM | GI50 [35]: 1.58 µM | TGI [35]: 3.5 µM | GI50 [36]: 13.8 µM | GI50 [37]: 2.34 µM | GI50 [38]: 1.78 µM | TGI [38]: 3.3 µM | GI50 [39]: 4.17 µM | GI50 [40]: 10.2 µM | GI50 [41]: 3.47 µM | TGI [41]: 9.8 µM | GI50 [42]: 2.57 µM | GI50 [43]: 14.8 µM | GI50 [44]: 2.75 µM | GI50 [45]: 10.7 µM | GI50 [46]: 2.95 µM | GI50 [47]: 1.55 µM | TGI [47]: 4.8 µM | GI50 [48]: 7.24 µM | TGI [48]: 24.2 µM | TGI [49]: 17.6 µM | GI50 [50]: 11.7 µM | GI50 [51]: 2.09 µM | TGI [52]: 16.9 µM | GI50 [53]: 4.27 µM | TGI [54]: 11.3 µM | TGI [55]: 21.5 µM | GI50 [56]: 2.82 µM | GI50 [57]: 3.55 µM | GI50 [58]: 4.79 µM | GI50 [59]: 8.32 µM | GI50 [60]: 6.03 µM | GI50 [61]: 9.55 µM | GI50 [62]: 10 µM | GI50 [63]: 3.47 µM | GI50 [64]: 17.8 µM | GI50 [65]: 11.5 µM | TGI [65]: 27.5 µM | GI50 [66]: 4.79 µM | TGI [67]: 23.4 µM

CC(=O)OC[C@H]1O[C@@H](O[C@@H]2C[C@H]3C(C)(C)[C@H](OC(C)=O)CC[C@]3(C)[C@H]3CC[C@@]45C[C@H](O)C[C@H](C)[C@@H]4CC=C5[C@@]32C)[C@H](O)[C@@H](O)[C@@H]1O
GI50 [1]: 3.16 µM | TGI [2]: 18.8 µM | GI50 [3]: 4.37 µM | GI50 [4]: 4.9 µM | GI50 [5]: 3.89 µM | GI50 [6]: 3.72 µM | TGI [7]: 16.7 µM | GI50 [8]: 5.13 µM | GI50 [9]: 9.33 µM | GI50 [10]: 6.61 µM | GI50 [11]: 4.9 µM | GI50 [12]: 11 µM | GI50 [13]: 4.27 µM | GI50 [14]: 2.04 µM | GI50 [15]: 11.2 µM | GI50 [16]: 4.07 µM | GI50 [17]: 2.95 µM | GI50 [18]: 4.37 µM | TGI [19]: 7 µM | GI50 [20]: 3.89 µM | GI50 [21]: 1.7 µM | TGI [21]: 3.3 µM | GI50 [22]: 2.14 µM | GI50 [23]: 4.47 µM | GI50 [24]: 9.55 µM | GI50 [25]: 2.34 µM | GI50 [26]: 3.39 µM | GI50 [27]: 4.37 µM | GI50 [28]: 5.25 µM | TGI [29]: 14.4 µM | GI50 [30]: 1.82 µM | GI50 [31]: 4.47 µM | GI50 [32]: 3.09 µM | GI50 [33]: 2.63 µM | GI50 [34]: 4.07 µM | GI50 [35]: 2.09 µM | TGI [35]: 3.8 µM | GI50 [36]: 14.8 µM | GI50 [37]: 1.82 µM | GI50 [38]: 1.82 µM | TGI [38]: 3.2 µM | GI50 [39]: 3.89 µM | GI50 [40]: 3.39 µM | GI50 [41]: 1.78 µM | TGI [41]: 3.5 µM | GI50 [42]: 2.14 µM | GI50 [43]: 14.1 µM | GI50 [44]: 2.09 µM | GI50 [45]: 10.5 µM | GI50 [46]: 2.82 µM | GI50 [47]: 2.4 µM | TGI [47]: 7.6 µM | GI50 [48]: 4.57 µM | TGI [48]: 18.1 µM | TGI [49]: 13.5 µM | GI50 [50]: 6.03 µM | GI50 [51]: 2.45 µM | TGI [52]: 15 µM | GI50 [53]: 3.31 µM | TGI [54]: 8.8 µM | TGI [55]: 17.9 µM | GI50 [56]: 3.89 µM | GI50 [57]: 3.89 µM | GI50 [58]: 4.79 µM | GI50 [59]: 8.32 µM | GI50 [60]: 3.98 µM | GI50 [61]: 3.89 µM | GI50 [62]: 7.08 µM | GI50 [63]: 3.16 µM | GI50 [64]: 15.1 µM | GI50 [65]: 8.91 µM | TGI [65]: 22.3 µM | GI50 [66]: 3.72 µM | TGI [67]: 18.1 µM

From ChEMBL document CHEMBL1158870, “Antitumor agents. 180. Chemical Studies and cytotoxic evaluation of cumingianosides and cumindysoside A, antileukemic triterpene glucosides with a 14,18-cycloapotirucallane skeleton” (1997)
